Values after ≈ are worked out from the molar mass of the structure shown. Like-named read-outs stand apart in the source and are kept apart here.
Tested on: α-glucosidase
Type: biochemical
Conditions: for IC50 (concentration to obtain 50% enzyme inhibitory activity): obtained by interpolation from inhibition rate data
Description: Examples of unsaturated fatty acid used to analyze its enzyme inhibitive activity as a α-glucosidase inhibitor include oleic acid (Ω9), linoleic acid (Ω6), and α-linolenic acid (Ω3).
In the analytical method, p-nitrophenyl-α-D-glucopyranoside was used as a substrate. The absorbance was measured by spectrophotometry to determine the α-glucosidase inhibition activity of samples (Apostolidis E. Lee C M. In vitro potential of Ascophyllum nodosam phenolic antioxidant-mediated alpha-glucosidase and alpha-amylase inhibition. Journal of Food Science 2010, 75:H97-102; Kang W Y, Song Y L, Zhang L. α-Glucosidase inhibitory and antioxidant properties and antidiabetic activity of Hypericum ascyron L. Medicinal Chemistry Research 2011.20:809-816).
To a 1.5 ml eppendorf tube containing 0.05 ml of sample solution (in 5% methanol), 0.1 ml of α-glucosidase solution (2 U/ml; in 100 mM phosphate buffer, pH 6.9) was added. The mixture was incubated in 37° C. water bath for 10 min, and then 0.05 ml of 5 mM p-nitrophenyl-α-D-glucopyranoside (in 100 mM phosphate buffer, pH 6.9) was added and mixed homogeneously. The mixture was incubated in 37° C. water bath for 10 min, and then in boiling water for 5 min to stop the reaction. After the addition of 1 ml of deionized water, the absorbance at 405 nm was measured by spectrophotometer (U-1800, Hitachi. Tokyo, Japan). • 1. Determining the α-glucosidase inhibition activity of oleic acid (as the α-glucosidase inhibitor): • A. Experimental group: enzyme+substrate+unsaturated fat acid (oleic acid) • B. Control: enzyme+substrate+buffer • C. Background: buffer+buffer+unsaturated fatty acid (oleic acid) • Calculation of the rate of inhibition:
Inhibition rate %=[ODControl−(ODExperimental group−ODBackground)]/ODControl×100%

| Compound | Inhibition rate (%) (0.0125 mg/ml) | Inhibition rate (%) (0.0250 mg/ml) | Inhibition rate (%) (0.0500 mg/ml) | IC50 (concentration to obtain 50% enzyme inhibitory activity) [µg/mL] | Inhibition rate (%) (0.01 mg/ml) | Inhibition rate (%) (0.02 mg/ml) | Inhibition rate (%) (0.04 mg/ml) | Inhibition rate (%) (0.06 mg/ml) |
| --- | --- | --- | --- | --- | --- | --- | --- | --- |
| CCCCC/C=C\C/C=C\CCCCCCCC(=O)O [linoleic acid] | 2.99 ± 0.36 | 30.10 ± 0.54 | 91.60 ± 0.62 | 33 (≈ 118 µM) |  |  |  |  |
| CCCCCCCC/C=C\CCCCCCCC(=O)O [oleic acid] |  |  |  | 22 (≈ 77.9 µM) | 11.8 ± 0.99 | 52.2 ± 0.55 | 96.7 ± 0.06 |  |
| CC/C=C\C/C=C\C/C=C\CCCCCCCC(=O)O [α-linolenic acid] |  |  | 57.5 ± 2.39 | 47 (≈ 169 µM) |  |  | 31.6 ± 1.80 | 81.0 ± 0.13 |

From patent publication US20130165679A1, “ALPHA-GLUCOSIDASE INHIBITOR” (priority 2011, published 2013)
